According to ChEMBL document CHEMBL1201862, “PubChem BioAssay data set” (2004):
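Cells were grown in 96-well plates and exposed to each compound for 48 hours at five concentrations; endpoints were interpolated linearly between bracketing concentrations, or set to the highest concentration if not reached. At the GI50, growth is halved.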 Active and inactive are the calls of the source. Cut-off read from the data, not from the text of the source: active = GI50 up to about 1.1 µM and inactive = higher.

How the values were obtained:
Assay in all cases: NCI anticancer screen, dose series, 48 h
UACC-257 = system: UACC-257
SK-MEL-2 = system: SK-MEL-2
SF-268 = system: SF-268
SNB-75 = system: SNB-75
U-251 = system: U-251
SK-OV-3 = system: SK-OV-3
NCI-H522 = system: NCI-H522
LOX IMVI = system: LOX IMVI
RPMI-8226 = system: RPMI-8226
HL-60 = system: HL-60
SK-MEL-5 = system: SK-MEL-5
SN12C = system: SN12C
COLO 205 = system: COLO 205
OVCAR-8 = system: OVCAR-8
SNB-19 = system: SNB-19
HCC 2998 = system: HCC 2998
NCI-H23 = system: NCI-H23
786-0 = system: 786-0

Row | SMILES | GI50 (UACC-257) | GI50 (SK-MEL-2) | GI50 (SF-268) | GI50 (SNB-75) | GI50 (U-251) | GI50 (SK-OV-3) | GI50 (NCI-H522) | GI50 (LOX IMVI) | GI50 (RPMI-8226) | GI50 (HL-60) | GI50 (SK-MEL-5) | GI50 (SN12C) | GI50 (COLO 205) | GI50 (OVCAR-8) | GI50 (SNB-19) | GI50 (HCC 2998) | GI50 (NCI-H23) | GI50 (786-0)
1 | CC(=O)NC(Cc1ccsc1)C(=O)O (stereo not drawn) | > 100 µM (inactive) | > 100 µM (inactive) | > 100 µM (inactive) | > 100 µM (inactive) | > 100 µM (inactive) | > 100 µM (inactive) | > 100 µM (inactive) | > 100 µM (inactive) | > 100 µM (inactive) | > 100 µM (inactive) | > 100 µM (inactive) | > 100 µM (inactive) | > 100 µM (inactive) | > 100 µM (inactive) | > 100 µM (inactive) | > 100 µM (inactive) | > 100 µM (inactive) | –
2 | CCN(CC)c1ccc2cc(C(=O)Nc3ccc4[nH]c(C(=O)N5C[C@@H](CCl)c6c5cc(OC(=O)Nc5ccccc5)c5[nH]cc(C)c65)cc4c3)oc2c1 [CARZELESIN] | 384 µM (inactive) | 0.000601 µM (active) | 0.00021 µM (active) | 284 µM (inactive) | – | 0.00042 µM (active) | 0.000708 µM (active) | 0.000128 µM (active) | 0.000308 µM (active) | 0.000282 µM (active) | 306 µM (inactive) | 552 µM (inactive) | – | 234 µM (inactive) | 294 µM (inactive) | 434 µM (inactive) | 0.000311 µM (active) | –
3 | CC1CC2(S(=O)(=O)c3ccccc3)ON1CC2S(=O)(=O)c1ccccc1 (stereo not drawn) | > 100 µM (inactive) | > 100 µM (inactive) | > 100 µM (inactive) | > 100 µM (inactive) | > 100 µM (inactive) | > 100 µM (inactive) | 70.8 µM (inactive) | > 100 µM (inactive) | > 100 µM (inactive) | > 100 µM (inactive) | – | > 100 µM (inactive) | > 100 µM (inactive) | > 100 µM (inactive) | > 100 µM (inactive) | > 100 µM (inactive) | > 100 µM (inactive) | > 100 µM (inactive)
4 | CC(=O)Nc1ccc(/C=c2\sc3nnc(CCC(=O)Nc4ccccc4Cl)n3c2=O)cc1 | > 10 µM (inactive) | 31.9 µM (inactive) | 26.4 µM (inactive) | – | 17.9 µM (inactive) | > 100 µM (inactive) | 18.7 µM (inactive) | 17.2 µM (inactive) | 20.8 µM (inactive) | 19.8 µM (inactive) | 25 µM (inactive) | 39.6 µM (inactive) | – | > 10 µM (inactive) | 38.9 µM (inactive) | > 10 µM (inactive) | 46.3 µM (inactive) | 21.8 µM (inactive)
5 | CC(C)(C)[Si](OC1CC(n2cnc3c(N)ncnc32)OC1CO)(c1ccccc1)c1ccccc1 (stereo not drawn) | 66.5 µM (inactive) | 18.8 µM (inactive) | 16.1 µM (inactive) | – | 17.1 µM (inactive) | 14.9 µM (inactive) | 16 µM (inactive) | 17.7 µM (inactive) | 14.1 µM (inactive) | 41.4 µM (inactive) | – | 20.9 µM (inactive) | 30.3 µM (inactive) | 18.9 µM (inactive) | 20.2 µM (inactive) | 67.5 µM (inactive) | 13.9 µM (inactive) | –
6 | CCOc1ccccc1NC(=O)CC(C(=O)OC)C(=O)C(=O)OC (stereo not drawn) | > 100 µM (inactive) | > 100 µM (inactive) | > 100 µM (inactive) | – | > 100 µM (inactive) | > 100 µM (inactive) | > 100 µM (inactive) | > 100 µM (inactive) | > 100 µM (inactive) | > 100 µM (inactive) | > 100 µM (inactive) | > 100 µM (inactive) | > 100 µM (inactive) | > 100 µM (inactive) | > 100 µM (inactive) | > 100 µM (inactive) | > 100 µM (inactive) | > 100 µM (inactive)
7 | CCCCCCCCCCCCOC(=S)NC | 20.3 µM (inactive) | 14.6 µM (inactive) | 20.2 µM (inactive) | 29.9 µM (inactive) | 18.3 µM (inactive) | 27 µM (inactive) | 27.5 µM (inactive) | 14.1 µM (inactive) | 16.9 µM (inactive) | 27.6 µM (inactive) | – | 17.7 µM (inactive) | – | 18.6 µM (inactive) | 33.4 µM (inactive) | 17.5 µM (inactive) | 20.4 µM (inactive) | 19 µM (inactive)
